Measured values taken from patent publication US10590143B2, “Herbicidally active (alkynyl-phenyl)-substituted cyclic dione compounds and derivatives thereof” (Syngenta Limited, priority 2013, dated 2020).

Tests used:
Experiment in all cases: Biological Example 3 glasshouse assay for herbicidal activity, using various adjuvant systems
Type in all cases: in vivo
Conditions in all cases: post-emergence, 8 g/ha, 14 or 15 DAA; adjuvant 0.5% v/v + 1.0% AMS + 12.5% IPA: TEHP (A3-A7), Adigor (A8, P1, P2, P4), Hexamoll DINCH (A1)
[1] = system: Digitaria sanguinalis (DIGSA)
Experimental: (§1) • Materials and Methods • Herbicide Application: Post-emergence foliar spray application, 200 L/ha, usually one or two replicates for the weeds (depending on application rate), and two replicates for soybean. • Climate: Standard warm conditions (tropical), in glasshouse. Specifically, the glasshouse bay conditions are 24° C./18° C. day/night; 16/8 hours light/dark; 65% humidity. • Plants: The herbicidal application takes place at the following growth stages for plants which include inter alia one or more of the following plants (usually the herbicidal application takes place on at least the following plants: DIGSA, ELEIN, SETFA, ZEAMX, GLXMA Nikko, and GLXMA TMG133, and often also either BRADC or BRAPP): • Brachiaria decumbens (BRADC)—growth stage (GS) 12 or 13 (or GS 12)—or, if BRADC is not used, then usually Brachiaria platyphylla (BRAPP)—growth stage 12 or 13 • Digitaria sanguinalis (DIGSA)—growth stage 12 or 13 • Eleusine indica (ELEIN)—growth stage 12 or 13 • Setaria faberi (SETFA)—growth stage 12 or 13 • Echinochloa crus-galli (ECHCG)—growth stage 12 or 13 • Sorghum halepense (annual) (SORHA)—growth stage 12 or 13 • Panicum dichotomiflorum (PANDI)—growth stage 12 or 13 • Zea mays (ZEAMX, maize/corn, e.g. can occur as volunteer corn) cultivar “Garland”—growth stage 12 or 13 • Glycine max (GLXMA, soybean) cultivar “Nikko”—growth stage: 1st trifoliate • Glycine max (GLXMA, soybean) cultivar “TMG133”—which is Roundup Ready™ glyphosate-tolerant soybean cultivar TMG133 (typically available from Monsanto in Brazil)—growth stage: 1st trifoliate. • Herbicidal Compositions Tested:
(§2) Each test compound is applied with one of the following adjuvant systems (all percentages are final concentrations in the aqueous spray mixture): • Adjuvant system 1: 0.5% v/v Adigor™*, 1.0% v/v AMS (ammonium sulphate) and 12.5% v/v IPA (isopropyl alcohol). • Adjuvant system 2: 0.5% v/v Hexamoll™ DINCH**, 1.0% v/v AMS (ammonium sulphate) and 12.5% v/v IPA (isopropyl alcohol). • Adjuvant system 3: 0.5% v/v tris-(2-ethylhexyl)phosphate (“TEHP”), 1.0% v/v AMS (ammonium sulphate) and 12.5% v/v IPA (isopropyl alcohol). ***Adigor™ (currently available in many countries from Syngenta) is an emulsifiable concentrate which consists of: • (i) ethoxylated alcohols, which typically includes ethoxylated higher alcohols (e.g. ethoxylates of alcohols wherein the alcohols are within the range of C12-C22); and • (ii) a mixture of heavy aromatic hydrocarbons, which typically includes (e.g. includes 50% or more by weight of the heavy aromatic hydrocarbons of) a mixture of naphthalenes each of which is substituted by one or more alkyls wherein the alkyl(s) in total have 1-4 carbon atoms per naphthalene molecule (e.g. Solvesso 200 ND™); and • (iii) about 47% w/w and/or about 45% w/v (with respect to the emulsifiable concentrate) of methylated rapeseed oil (rapeseed oil methyl ester) (e.g. Agnique ME 18 RD-F™), as an adjuvant. **Hexamoll™ DINCH™ is 1,2-cyclohexane dicarboxylic acid di-isononyl ester
(§3) Seeds of the weed (including volunteer) plants, typically including inter alia Digitaria sanguinalis (DIGSA), Eleusine indica (ELEIN), Setaria faberi (SETFA), Zea mays (ZEAMX, corn), and sometimes also [either Brachiaria decumbens (BRADC) or Brachiaria platyphylla (BRAPP)], are sown in seed trays (troughs) containing clay loam soil (pH 7.0, 2.2% organic matter, “Trough Mix A”); and soybean seed is sown in pots containing the same soil with 3 soybean seedlings per pot. The plants are sprayed with the test herbicide when they reach the growth stages mentioned above.
(§4) The test herbicidal solutions are prepared by mixing the appropriate aliquots of the test substance(s) and one of the adjuvant systems indicated above*** in deionised water to give the desired treatment concentration.
(§5) The herbicidal application is made as a foliar spray, using a tracksprayer. Following the herbicidal application, the plants are watered twice per day for the duration of the test. […]

[2] = system: Setaria faberi (SETFA)
Experimental: as §1, §2, §3, §4, §5

[3] = system: Brachiaria decumbens (BRADC)
Experimental: as §1, §2, §3, §4, §5

[4] = system: Eleusine indica (ELEIN)
Experimental: as §1, §2, §3, §4, §5

Compound | percentage control of (percentage phytotoxicity on) Digitaria sanguinalis (DIGSA) [1] | percentage control of (percentage phytotoxicity on) Setaria faberi (SETFA) [2] | percentage control of (percentage phytotoxicity on) Brachiaria decumbens (BRADC) [3] | percentage control of (percentage phytotoxicity on) Eleusine indica (ELEIN) [4]
COc1cc(C#CCl)cc(F)c1C1C(=O)C2CCC(C2)C1=O (centres unmarked) [Compound A8, 3-[4-(2-chloroethynyl)-2-fluoro-6-methoxy-phenyl]bicyclo[3.2.1]octane-2,4-dione] | 30% | 10% | 15% | 5%
CC#Cc1cc(F)c(C2=C(OC(=O)C(C)(C)C)C3CCC(C3)C2=O)c(OC)c1 (centres unmarked) [Compound P1] | 70% |  |  | 
